From ChEMBL document CHEMBL5104217, “Identification of a Target Site for Covalent Inhibition of Protein Phosphohistidine Phosphatase 1” (ACS Med Chem Lett, 2022)
Activity calls are given as the source filed them. The rule behind the calls is not given here.

How the values were obtained:
[1] = target: T1, 14 kDa phosphohistidine phosphatase (Homo sapiens, UniProt Q9NRX4); experiment: Inhibition of human PHPT1 expressed in Escherichia coli BL21 (DE3) using pNPP as substrate assessed as inhibition constant by reciprocal analysis
T1 sequence (Q9NRX4 whole entry): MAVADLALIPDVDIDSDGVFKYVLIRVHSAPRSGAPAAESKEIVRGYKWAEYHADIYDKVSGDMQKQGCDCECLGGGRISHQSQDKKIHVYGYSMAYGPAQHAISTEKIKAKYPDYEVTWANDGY

[2] = target: T2, 14 kDa phosphohistidine phosphatase (Homo sapiens) (UniProt Q9NRX4); experiment: Inhibition of human PHPT1 expressed in Escherichia coli BL21 (DE3) using pNPP as substrate assessed as Kinact by reciprocal analysis
T2 sequence (whole entry): T1 sequence (Q9NRX4 whole entry)

[3] = target: T2, 14 kDa phosphohistidine phosphatase (Homo sapiens); experiment: Inhibition of human PHPT1 expressed in Escherichia coli BL21 (DE3) using pNPP as substrate assessed as Kinact/Ki by reciprocal analysis
[4] = target: T2, 14 kDa phosphohistidine phosphatase (Homo sapiens); experiment: Covalent inhibition of human PHPT1 expressed in Escherichia coli BL21 (DE3) assessed as inhibition of dephosphorylation of histidine-phosphorylated BSA at 10 equiv preincubated for 1 hr followed by substrate addition and measured for 150 secs by Western blot analysis; settings: time 3750.0 sec
[5] = target: T1, 14 kDa phosphohistidine phosphatase; experiment: Inhibition of human PHPT1 expressed in Escherichia coli BL21 (DE3) using pNPP as substrate incubated for 1 hr by multimode microplate reader analysis
[6] = organism: Homo sapiens; experiment: Covalent binding affinity to human PHPT1 C69A mutant expressed in Escherichia coli BL21 (DE3) assessed as covalent adduct formation at 10 equiv incubated for 1 hr by RP-HPLC based ESI-MS analysis
[7] = target: T2, 14 kDa phosphohistidine phosphatase (Homo sapiens); experiment: Covalent inhibition of human PHPT1 expressed in Escherichia coli BL21 (DE3) assessed as increase in protein mass at 10 equiv incubated for 1 hr by RP-HPLC based ESI-MS analysis
[8] = target: T2, 14 kDa phosphohistidine phosphatase (Homo sapiens); experiment: Covalent inhibition of human PHPT1 expressed in Escherichia coli BL21 (DE3) using pNPP as substrate at 10 equiv preincubated for 60 mins by multimode microplate reader analysis
[9] = organism: Homo sapiens; experiment: Covalent binding affinity to human PHPT1 C71A mutant expressed in Escherichia coli BL21 (DE3) assessed as covalent adduct formation at 10 equiv incubated for 1 hr by RP-HPLC based ESI-MS analysis

| SMILES | Ki [1] | Kinact [2] | Ratio [3] | inhibition [4] | IC50 [5] | Activity [6] | inhibition [7] | inhibition [8] | Activity [9] |
| --- | --- | --- | --- | --- | --- | --- | --- | --- | --- |
| CCN1C(=O)C=CC1=O [N-ETHYLMALEIMIDE] | 209 µM | 0.0075 s⁻¹ | 31 M⁻¹ s⁻¹ | – | – | – | – | – | – |
| C=C(CC)C(=O)c1ccc(OCC(=O)O)c(Cl)c1Cl [ETHACRYNIC ACID] | 183 µM | 0.00267 s⁻¹ | 14.6 M⁻¹ s⁻¹ | Active | 18.3 µM | Active | Active | Active | Active |
